Target: 11-beta-hydroxysteroid dehydrogenase 1 (Homo sapiens, UniProt P28845)
Assay: Inhibition of FLAG tagged human recombinant 11beta-HSD1 reductase activity expressed in Trichoplusia ni Hi5 cells
Format: cell-based, BTI-TN-5B1-4

Chain of 11-beta-hydroxysteroid dehydrogenase 1 (P28845 whole entry): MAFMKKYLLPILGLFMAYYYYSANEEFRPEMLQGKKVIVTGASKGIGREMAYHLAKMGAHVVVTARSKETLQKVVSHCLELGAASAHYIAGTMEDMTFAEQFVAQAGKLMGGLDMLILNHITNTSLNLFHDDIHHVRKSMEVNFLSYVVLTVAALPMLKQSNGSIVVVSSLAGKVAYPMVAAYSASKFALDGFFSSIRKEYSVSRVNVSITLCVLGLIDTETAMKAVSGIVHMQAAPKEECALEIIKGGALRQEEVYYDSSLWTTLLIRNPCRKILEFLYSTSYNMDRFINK

CC(C)n1c(-c2ccc(OC(F)(F)F)cc2)nnc1C1(c2ccc(F)cc2)CC1
IC50: 1.6 nM

From ChEMBL document CHEMBL1144222, “Distinctive molecular inhibition mechanisms for selective inhibitors of human 11beta-hydroxysteroid dehydrogenase type 1” (Bioorg Med Chem, 2008)
